Legend:
Assay type in all cases: in vivo, rhesus macaques
SIV-env = experiment: ImmunoPET/CT with 64Cu-DOTA-F(ab')2 p7D3 anti SIV-env probe, 1-2 weeks galunisertib
Procedure: PET/CT imaging with a 64Cu-DOTA-F(ab′)2 p7D3 anti SIV-env probe were performed before Galunisertib treatment, after 7 days in all macaques and after 14 days in the macaques that were treated for 14 days. Briefly, a solution of 64Cu was incubated with DOTA-F(ab′)2 p7D3 antibody reconstituted with 50 μL of IM NH40Ac, pH of 5.5 and incubated for 1 hour at 37° C.; then purified by ultrafiltration in a desalting spin column (10K MWCO, Thermo Fisher) and finally eluted with sterile saline prior to injection. The labeled probe was injected IV via catheters, 24 h before PET-CT scanning. For taking PET/CT scans, the macaques were sedated with ketamine HCL (10 mg/kg), and/or telazol (4-8 mg/kg) via intramuscular and supplemented with ketamine (5 mg/Kg) as needed to perform the procedure. The macaque's body was immobilized in dorsal recumbency on the scanner table and PET/CT scans were acquired using a Philips Gemini TF64 PET/CT scanner. […]
PET Image analysis was performed using the MIM software. PETCT fusions were generated scaled according to calculated Standardized Uptake Values. […]
Regions of interest (ROI) were isolated using a combination of the Region Grow function and manual contouring on a representative scan. […] The signals of the whole body as well as within these ROI were quantified, and Max, Mean, and Total SUVs were calculated for further analyses. […]

SIVmac239M2 = experiment: SIV-IPDA intact and total provirus in PBMC
Procedure: To determine the impact of galunsiertib on SIV reservoir, CA-vDNA was measured in PBMC, colorectal biopsies and lymph nodes (LN). […] In the gut and LN (right axillary), decreases range from a Log to ⅓ of a Log (gut: median 0.77; range:0.33-0.94 folds LN: median: 0.93; range:0.33-0.98 folds decrease). In the PBMC the decrease was slightly less pronounced with a median half Log decrease ([…] median: 0.58; range 0.28-0.88 folds decrease). However, the comparison for the PBMCs was between week ˜35 and week ˜45 (end of cycle 3, AC3) instead of the end of all 4 cycles, because a snap frozen pellet was not available at the end of cycle 4 for PBMCs. The SIV reservoir in PBMCs was also monitored by SIV-IPDA comparing before cycle 1 (BC1) to the end of cycle 4 (AC4). […] Intact provirus declined similarly to the CA-vDNA with a median of half Log (median: 0.53; range:0-0.71 folds decrease).
Blood was collected in EDTA tubes and plasma was separated by density gradient centrifugation and used for the determination of plasma VL by SIVgag qRT-PCR at NIRC or at Leidos (Quantitative Molecular Diagnostics Core, AIDS and Cancer Virus Program Frederick National Laboratory). Tissue VL from snap frozen PBMC pellets, colorectal biopsies and LN FNA were performed as described in (77). SIV-TILDA was performed on freshly stored PBMC before cycle 1 and at the end of cycle 4 of galunisertib by Accelevir, Baltimore, MD.

T and NK cells = experiment: High parameter flow cytometry of PBMC T and NK cells
Text: Colorectal biopsy tissues were isolated by enzymatic digestion while LN biopsies were passed through a 70 μm cell strainer as described in (110). FlowJo vs 10.8 was use for both classical and high-dimensional analysis. PeacoQC, FlowtSNE and FlowSOM plug-ins were used with default settings. SwiftReg was used for normalization (113).
Peripheral blood mononuclear cells (PBMCs) collected from 8 macaques at 7 time points spanning Cycle 1 to Cycle 4 (refer to Table 5) were employed for high-parameter flow cytometry staining. Cells from before and after cycle 1 and at the end of cycle 3 were used for Tfh/Treg assay. In both cases, cell fixation and permeabilization for intracellular staining were carried out using the FoxP3 Staining Buffer set (Thermo Fisher Scientific, Carlsbad, CA). The high-dimensional panel consisted of antibodies outlined in Table 4, catering to requirements for surface and intracellular staining, as well as viability assessment. Each antibody was individually titrated to ensure optimal staining conditions. Data acquisition was performed using the FACSymphony A5.2 Spectral Analyzer. Following data collection, spectral compensation was implemented utilizing FlowJo™ v10.8 Software (BD Life Sciences). 60,000 live singlet lymphocytes from each of samples was downsampled to prevent disproportionate representation by samples with higher cell counts, ensuring balanced subsequent analysis. To mitigate batch effects, we utilized the swiftReg Neighbor-Dependent Cluster Registration (NDCR) method available within the SWIFT package(112). This method effectively addresses batch variations while preserving the inherent biological diversity. […] Furthermore, we implemented the Peak Extraction and Cleaning Oriented Quality Control (PeacoQC) procedure (138) in FlowJo™ v10.8 to eliminate low-quality events arising from potential issues like clogs, speed fluctuations, and slow sample uptake. FlowSOM FlowJo plugin was employed for automated cell population identification, preceded by the utilization of Phenograph to obtain optimal cluster numbers for dimensional reduction, for the merged data of All Time points and BC1 vs AC4 merged data respectively. The Supplementary FIG. 29A heatmap illustrates the median fluorescence intensity (MFI) values for all markers across all clusters. A tSNE plot, generated in FlowJo™ using the markers employed in the FlowSOM analysis, is presented, with coloring based on the FlowSOM clustering or two specific time points, BC1 vs AC4 in FIG. 4G.

## Cc1cccc(-c2nn3c(c2-c2ccnc4ccc(C(N)=O)cc24)CCC3)n1 [galunisertib, Galunisertib]
SIV-env; day 7 or 14 of treatment vs baseline
  macaques with clear extensive viral reactivation in the gut (PET signal): 3 of the 7
SIV-env; oral galunisertib, aviremic long-term ART-treated macaques
  macaques with increased SUVtot in PET/CT images in gut and lymph nodes: 5 out of 7
SIVmac239M2; BC1 (week 35 pi) to AC4 (week 49 pi), median
  decrease of intact pro-virus in PBMC: 3 fold
SIVmac239M2; PBMC, BC1 vs AC4
  intact provirus decline by SIV-IPDA, median: 0.53 folds
  intact provirus decline by SIV-IPDA, range: 0-0.71 folds
  total and intact provirus by SIV-IPDA: significant decreases
T and NK cells; AC1 vs BC1
  proliferation marker Ki67 in NK cells: initial increase
T and NK cells; BC2 vs BC1
  T-Bet in CD8+ T cells: significant decrease
T and NK cells; Example 5, end of 1st cycle, PBMC RNAseq, CD69 and CD38 on T cells
  systemic immune activation: did non induce systemic immune activation
T and NK cells; Example 5, preliminary data
  effector phenotype in T cells (CD95, CD62L): increased expression of CD95
T and NK cells; PBMC, throughout treatment
  TCF1 expression in CD4+ T cells: profound consistent decrease
  expression of CD95 in CD4+ T cells: substantial increase
T and NK cells; after the first cycle, reverted to baseline later
  CD62L in CD4+ T cells: small decrease
T and NK cells; exception: HLA-DR increase at beginning of cycle 2
  expression of activation markers CD69, HLA-DR and Ki67 in CD4+ T cells: remained mostly unchanged
T and NK cells; rhesus monkey, in vivo
  CCR7 expression in memory CD8+ T cells: sustained significant increase
  CD16 expression within NKG2A+CD8+ NK cells: pronounced increase
  CD95 expression in CD8+ T cells: No significant increase
  TCF1 downregulation in CD8+ T cells: reached significance only at the end of the treatment
  expression of CCR7 or CD28 within CD95+CD4+ T cells: no change
  expression of PD1 on CD4+ and CD8+ T cells: either did not change or was slightly downregulated
  frequency of naïve (CD95−) cells within CD4+ T cells: decreased
  gut homing receptor integrin α4β7 in CD4+ T cells: downregulation
  levels of T-bet in CD4+ T cells: did not change significantly
  levels of granzyme B in CD4+ T cells: decrease
